Test results reported in patent publication US20100323990A1, “SHIP 1 MODULATOR PRODRUGS” (THE UNIVERSITY OF BRITISH COLUMBIA, priority 2006, published 2010).

Legend:
[1] = tested on: J2M macrophage cells; experiment: TNFα production in LPS-stimulated J2M macrophages (Example 10); format: cell-based; conditions: 2 ng/mL LPS
Procedure: An assay to determine the inhibition of macrophage TNFα by varying concentrations of Compound 106 was carried out as follows.
J2M macrophage cells were plated at 2×10^5 cells/well in 24 well plates. The next day the media was changed and Compound 106 or PBS carrier were added to the wells at the indicated concentrations for 30 min prior to stimulation of the cells with 2 ng/mL lipopolysaccharide (LPS). LPS activation of macrophages leads to production of TNFa which can be detected in the culture supernatant and quantified by ELISA. The results are depicted in a graph in FIG. 2.

[2] = tested on: plasma TNFα; experiment: Mouse endotoxemia model (Assay 6), plasma TNFα by ELISA; format: in vivo, mice; conditions: oral, 30 min prior to IP 2 mg/kg LPS, plasma TNFα 2 hrs later
Procedure: (§1) Assay 1) In vitro testing in a SHIP enzyme assay. Test compounds were dissolved in a suitable solvent (e.g. EtOH, DMSO and others) and diluted into aqueous buffer (20 mM Tris HCl, pH 7.5 and 10 mM MgCl2). SHIP enzyme assays were performed in 96-well microtitre plates with 10 ng of enzyme/well in a total volume of 25 μL of 20 mM Tris HCl, pH 7.5 and 10 mM MgCl2. SHIP enzyme was incubated with test extracts (provided in solvent) or vehicle for 15 min at 23° C. before the addition of 100 μM inositol-1,3,4,5-tetrakisphosphate (Echelon Biosciences Inc, Salt Lake City, Utah). After 20 min at 37° C. and the amount of inorganic phosphate released assessed by the addition of Malachite Green reagent and absorbance measurement at 650 nm. Assay 2) Macrophage TNF-α production. J774.1a macrophage cells were treated with 10 μg/mL of test compound dissolved in solvent (e.g. cyclodextran) for 40 minutes prior to the addition of 100 ng/mL LPS. Culture supernatants were collected after 2 hr and 5 hr for TNF-α determination by ELISA. Assay 3) Macrophage TNF-α NO assay. J774.1a macrophage cells were treated with 10 μg/ml of test compound dissolved in solvent for 40 minutes prior to the addition of LPS. Culture supernatants were collected after 24 hr. for determination of NO concentration using the Griess reagent. Assay 4) Stimulation of mast cells by FcεRI crosslinking. Mast cells were pre-loaded overnight in BMMC medium lacking IL-3 with 0.1 μg/ml anti-DNP IgE (SPE-7, Sigma, Oakville, Ont). For calcium flux measurements, cells were incubated with 2 μM fura 2-acetoxymethyl ester (Molecular Probes, Eugene, Oreg.) in Tyrode's buffer at 23° C. for 45 min. Cells were then washed and incubated in the presence of the test compound 30 min prior to stimulation with the indicated concentration of DNP-human serum albumin (DNP-HSA). Calcium influx was monitored by spectrofluorometry as described previously. For analysis of intracellular signaling, cells were pre-loaded with anti-DNP IgE as above, pre-treated with the test compound for 30 min at 37° C. and stimulated with 20 ng/ml DNP-HSA for 5 min. Total cell lysates were then prepared and analyzed for phospho-PKB, phospho-p38^MAPK, phospho-MAPK, Grb-2 (Cell Signalling, Mississauga, Ont) and SHIP^6 by immunoblot analysis. Assay 5) Mouse acute cutaneous anaphylaxis model. 6-8 week old CD1 mice (University of British Columbia Animal Facility, Vancouver, BC) were sensitized to the hapten DNP by cutaneous application of 25 μL of 0.5% dinitrofluorobenzene (DNFB) (Sigma, Oakville, Ont) in acetone to the shaved abdomen of mice for two consecutive days. 24 hrs later, test substances (dissolved in 10 μL of 1:2 DMSO:MeOH) were painted on the right ear while the left ear received vehicle control. 30 min after drug application, DNFB was applied to both ears to induce mast cell degranulation. A 6 mm punch was taken from the ear and immediately frozen on dry ice for subsequent determination of neutrophil myeloperoxidase (MPO) activity. Assay 6) Mouse endotoxemia model. […] The ability of SHIP activators to reduce tumor cell survival was assessed in MM cell lines treated with the test compound. The lines OPM1, OPM2, MM.1S and RPMI 8226 were plated at a density of 1×10^5 cells/mL in 200 μL of medium with various concentrations of the test compound, and viable cell numbers were determined on day 3 and day 5 by trypan blue exclusion. […]

[3] = tested on: Mast cells; experiment: Stimulation of mast cells by FcεRI crosslinking (Assay 4); format: cell-based; conditions: test compound 30 min prior to DNP-HSA
Procedure: as §1, with “model.” for “model. 6-8 week old CD1 mice (University of British Columbia Animal Facility, Vancouver, BC) were sensitized to the hapten DNP by cutaneous application of 25 μL of 0.5% dinitrofluorobenzene (DNFB) (Sigma, Oakville, Ont) in acetone to the shaved abdomen of mice for two consecutive days. 24 hrs later, test substances (dissolved in 10 μL of 1:2 DMSO:MeOH) were painted on the right ear while the left ear received vehicle control. 30 min after drug application, DNFB was applied to both ears to induce mast cell degranulation. A 6 mm punch was taken from the ear and immediately frozen on dry ice for subsequent determination of neutrophil myeloperoxidase (MPO) activity. Assay 6) Mouse endotoxemia model.”

[4] = tested on: Bone marrow derived mast cells; experiment: Calcium influx in mast cells after IgE receptor crosslinking (Example 11); format: cell-based; conditions: 1 hr treatment, anti IgE antibody
Procedure: An assay to determine the inhibition of calcium influx in mast cells by Compound 106 was carried out as follows.
The activation of mast cells by IgE receptor crosslinking leads to an influx of calcium into the cells, followed by degranulation and secretion of pro-inflammatory mediator. Bone marrow derived mast cells were loaded with the fluorescent calcium indicator dye Fura-2 prior to treatment for 1 hr with Compound 106 or PBS carrier. Cells were then stimulated or not with an anti IgE antibody to cross-link the IgE receptors. Calcium influx was then monitored by fluorimetry. The results are depicted in a graph in FIG. 3.

[5] = tested on: J774.1a macrophage cells; experiment: Macrophage TNF-α production (Assay 2); format: cell-based; conditions: 10 μg/mL test compound, 100 ng/mL LPS, supernatants after 2 hr and 5 hr; note: key: a ‘+’ indicates a positive result for desired activity; a ‘−’ indicates a negative result for desired activity
Procedure: (§2) Assay 1) In vitro testing in a SHIP enzyme assay. Test compounds were dissolved in a suitable solvent (e.g. EtOH, DMSO and others) and diluted into aqueous buffer (20 mM Tris HCl, pH 7.5 and 10 mM MgCl2). SHIP enzyme assays were performed in 96-well microtitre plates with 10 ng of enzyme/well in a total volume of 25 μL of 20 mM Tris HCl, pH 7.5 and 10 mM MgCl2. SHIP enzyme was incubated with test extracts (provided in solvent) or vehicle for 15 min at 23° C. before the addition of 100 μM inositol-1,3,4,5-tetrakisphosphate (Echelon Biosciences Inc, Salt Lake City, Utah). After 20 min at 37° C. and the amount of inorganic phosphate released assessed by the addition of Malachite Green reagent and absorbance measurement at 650 nm. Assay 2) Macrophage TNF-α production. J774.1a macrophage cells were treated with 10 μg/mL of test compound dissolved in solvent (e.g. cyclodextran) for 40 minutes prior to the addition of 100 ng/mL LPS. Culture supernatants were collected after 2 hr and 5 hr for TNF-α determination by ELISA. Assay 3) Macrophage TNF-α NO assay. J774.1a macrophage cells were treated with 10 μg/ml of test compound dissolved in solvent for 40 minutes prior to the addition of LPS. Culture supernatants were collected after 24 hr. for determination of NO concentration using the Griess reagent. Assay 4) Stimulation of mast cells by FcεRI crosslinking. Mast cells were pre-loaded overnight in BMMC medium lacking IL-3 with 0.1 μg/ml anti-DNP IgE (SPE-7, Sigma, Oakville, Ont). For calcium flux measurements, cells were incubated with 2 μM fura 2-acetoxymethyl ester (Molecular Probes, Eugene, Oreg.) in Tyrode's buffer at 23° C. for 45 min. Cells were then washed and incubated in the presence of the test compound 30 min prior to stimulation with the indicated concentration of DNP-human serum albumin (DNP-HSA). Calcium influx was monitored by spectrofluorometry as described previously. For analysis of intracellular signaling, cells were pre-loaded with anti-DNP IgE as above, pre-treated with the test compound for 30 min at 37° C. and stimulated with 20 ng/ml DNP-HSA for 5 min. Total cell lysates were then prepared and analyzed for phospho-PKB, phospho-p38^MAPK, phospho-MAPK, Grb-2 (Cell Signalling, Mississauga, Ont) and SHIP^6 by immunoblot analysis. Assay 5) Mouse acute cutaneous anaphylaxis model. 6-8 week old CD1 mice (University of British Columbia Animal Facility, Vancouver, BC) were sensitized to the hapten DNP by cutaneous application of 25 μL of 0.5% dinitrofluorobenzene (DNFB) (Sigma, Oakville, Ont) in acetone to the shaved abdomen of mice for two consecutive days. 24 hrs later, test substances (dissolved in 10 μL of 1:2 DMSO:MeOH) were painted on the right ear while the left ear received vehicle control. 30 min after drug application, DNFB was applied to both ears to induce mast cell degranulation. A 6 mm punch was taken from the ear and immediately frozen on dry ice for subsequent determination of neutrophil myeloperoxidase (MPO) activity. Assay 6) Mouse endotoxemia model. 6-8 week old C57B16 mice (VCHRI Mammalian Model of Human Disease Core Facility, Vancouver, BC) were orally administered the test compound 30 min prior to an IP injection of 2 mg/kg of LPS (E. Coli serotype 0111:B4, Sigma, Oakville, Ont). Blood was drawn 2 hrs later for determination of plasma TNFα by ELISA. Assay 7) In vitro Mulitple Myeloma (MM) assay. The ability of SHIP activators to reduce tumor cell survival was assessed in MM cell lines treated with the test compound. The lines OPM1, OPM2, MM.1S and RPMI 8226 were plated at a density of 1×10^5 cells/mL in 200 μL of medium with various concentrations of the test compound, and viable cell numbers were determined on day 3 and day 5 by trypan blue exclusion. The lines RPMI 8226 and U266 were plated at a density of 1×10^6 cells/mL in 250 μL of medium with various concentrations of the test compound. At day 4, the medium of each culture was replaced by fresh medium containing the same concentration of test compound. […]

[6] = tested on: J774.1a macrophage cells; experiment: Macrophage TNF-α NO assay (Assay 3), Griess reagent; format: cell-based; conditions: 10 μg/ml test compound, LPS, supernatants after 24 hr; note: key: a ‘+’ indicates a positive result for desired activity; a ‘−’ indicates a negative result for desired activity
Procedure: as §2

Cc1cc(OC(=O)C(N)CCCCN)cc2c1[C@]1(C)CCC3C(C)(C)CCC[C@]3(C)[C@H]1C2 (stereo partly drawn) [Compound 106]
inhibition of macrophage TNFα production [1]: Inhibits Macrophage TNFα Production | Assay 6: Mouse endotoxemia model, desired activity [2]: + | Assay 4: Stimulation of mast cells by FcεRI crosslinking, desired activity [3]: + | inhibition of calcium influx in mast cells [4]: Inhibits Calcium Influx in Mast Cells | Assay 2: Macrophage TNF-α production, desired activity [5]: + | Assay 3: Macrophage NO assay, desired activity [6]: +
